Source: patent US7956196B2, “1,3-dihydro-benzimidazol-2-ylidene amines as inhibitors of respiratory syncytial virus replication” (Tibotec Pharmaceuticals Ltd., priority 2005, dated 2011)
Read-outs that look alike come from different tables or passages of the source.

What was measured:
[1] = tested on: Respiratory Syncytial Virus; experiment: In vitro screening for activity against RSV, automated tetrazolium-based (MTT) colorimetric assay in HeLa cells; assay type: cell-based; conditions: human respiratory syncytial virus, 168 h, read-out: pIC50 (converted)
Source text: In vitro screening of compounds of formula (I) for activity against RSV. The percent protection against cytopathology caused by viruses (antiviral activity or EC50) achieved by tested compounds and their cytotoxicity (CC50) are both calculated from dose-response curves. The selectivity of the antiviral effect is represented by the selectivity index (SI), calculated by dividing the CC50 (cytotoxic dose for 50% of the cells) by the EC50 (antiviral activity for 50% of the cells). The tables in the above experimental part list the category to which each of the prepared compounds belong: Compounds belonging to activity category “A” have a pEC50 (-log of EC50 when expressed in molar units) equal to or more than 7. Compounds belonging to activity category “B” have a pEC50 value between 6 and 7.
Automated tetrazolium-based colorimetric assays were used for determination of EC50 and CC50 of test compounds. Flat-bottom, 96-well plastic microtiter trays were filled with 180 μl of Eagle's Basal Medium, supplemented with 5% FCS (0% for FLU) and 20 mM Hepes buffer. Subsequently, stock solutions (7.8×final test concentration) of compounds were added in 45 μl volumes to a series of triplicate wells so as to allow simultaneous evaluation of their effects on virus- and mock-infected cells. Five five-fold dilutions were made directly in the microtiter trays using a robot system. Untreated virus controls, and HeLa cell controls were included in each test. Approximately 100 TCID50 of Respiratory Syncytial Virus was added to two of the three rows in a volume of 50 μl. The same volume of medium was added to the third row to measure the cytotoxicity of the compounds at the same concentrations as those used to measure the antiviral activity. After two hours of incubation, a suspension (4×10^5 cells/ml) of HeLa cells was added to all wells in a volume of 50 μl. The cultures were incubated at 37° C. in a 5% CO2 atmosphere. Seven days after infection the cytotoxicity and the antiviral activity was examined spectrophotometrically. To each well of the microtiter tray, 25 μl of a solution of MTT (3-(4,5-dimethylthiazol-2-yl)-2,5-diphenyltetrazolium bromide) was added. The trays were further incubated at 37° C. for 2 hours, after which the medium was removed from each cup. Solubilization of the formazan crystals was achieved by adding 100 μl 2-propanol. Complete dissolution of the formazan crystals were obtained after the trays have been placed on a plate shaker for 10 min. Finally, the absorbances were read in an eight-channel computer-controlled photometer (Multiskan MCC, Flow Laboratories) at two wavelengths (540 and 690 nm). The absorbance measured at 690 nm was automatically subtracted from the absorbance at 540 nm, so as to eliminate the effects of non-specific absorption.
The percent protection against cytopathology caused by viruses (antiviral activity or EC50) achieved by tested compounds and their cytotoxicity (CC50) were both calculated from dose-response curves. The selectivity of the antiviral effect is represented by the selectivity index (SI), calculated by dividing the CC50 (cytotoxic dose for 50% of the cells) by the EC50 (antiviral activity for 50% of the cells).

[2] = protection against RSV cytopathology in HeLa cells, MTT readout seven days after infection

SMILES	IC50 [1, 2]	melting point	IC50 ([1]; HeLa)
Cc1cccc(C(=O)N=c2n(Cc3ccc(C#N)cc3)c3ccccc3n2Cc2cccc3cccnc23)c1 [Compound 20]	398 nM	158 °C	–
N#Cc1ccc(Cn2c(=NC(=O)c3ccc(Cl)cc3)n(Cc3cccc4cccnc34)c3ccccc32)cc1 [Compound 21]	398 nM	154 °C	–
N#Cc1ccc(Cn2c(=NC(=O)c3cccc([N+](=O)[O-])c3)n(Cc3cccc4cccnc34)c3ccccc32)cc1 [Compound 22]	631 nM	222 °C	–
N#Cc1ccc(Cn2c(=NC(=O)c3ccc(Cl)cc3Cl)n(Cc3cccc4cccnc34)c3ccccc32)cc1 [Compound 23]	–	114 °C	631 nM
N#Cc1ccc(Cn2c(=NC(=O)c3cc(C(F)(F)F)cc(C(F)(F)F)c3)n(Cc3cccc4cccnc34)c3ccccc32)cc1 [Compound 24]	794 nM	190 °C	–
N#Cc1ccc(Cn2c(=NC(=O)c3ccc(Br)cc3)n(Cc3cccc4cccnc34)c3ccccc32)cc1 [Compound 26]	10000 nM	125 °C	–
COc1ccc(C(=O)N=c2n(Cc3ccc(C#N)cc3)c3ccccc3n2Cc2cccc3cccnc23)cc1 [Compound 27]	–	150 °C	20000 nM
N#Cc1ccc(Cn2c(=NC(=O)c3ccc([N+](=O)[O-])cc3)n(Cc3cccc4cccnc34)c3ccccc32)cc1 [Compound 28]	31600 nM	196 °C	–
N#Cc1ccc(Cn2c(=NC(=O)c3ccc(-c4ccccc4)cc3)n(Cc3cccc4cccnc34)c3ccccc32)cc1 [Compound 29]	39800 nM	100 °C	–
CC(C)Oc1ccc(C(=O)N=c2n(Cc3ccc(C#N)cc3)c3ccccc3n2Cc2cccc3cccnc23)cc1 [Compound 30]	50100 nM	118 °C	–
N#Cc1ccc(Cn2c(=NC(=O)c3ccc(C#N)cc3)n(Cc3cccc4cccnc34)c3ccccc32)cc1 [Compound 31]	> 100000 nM	182 °C	–
COc1cc(C(=O)N=c2n(Cc3ccc(C#N)cc3)c3ccccc3n2Cc2cccc3cccnc23)cc(OC)c1OC [Compound 32]	–	108 °C	> 100000 nM
N#Cc1ccc(Cn2c(=NC(=O)c3ccc(Oc4ccccc4)cc3)n(Cc3cccc4cccnc34)c3ccccc32)cc1 [Compound 33]	100000 nM	66 °C	–
COC(=O)c1ccc(Cn2c(=NCCc3cccc(F)c3)n(Cc3cccc4cccnc34)c3ccccc32)cc1 [Compound 36]	79.4 nM	89 °C	–
COC(=O)c1ccc(Cn2c(=NCCC(c3ccccc3)c3ccccc3)n(Cc3cccc4cccnc34)c3ccccc32)cc1 [Compound 38]	158 nM	146 °C	–
COC(=O)c1ccc(Cn2c(=NC(=O)c3cc(C(F)(F)F)cc(C(F)(F)F)c3)n(Cc3cccc4cccnc34)c3ccccc32)cc1 [Compound 39]	1580 nM	204 °C	–
COC(=O)c1ccc(Cn2c(=NC(=O)c3ccc(Br)cc3)n(Cc3cccc4cccnc34)c3ccccc32)cc1 [Compound 40]	> 100000 nM	131 °C	–
COC(=O)c1cccc(Cn2c(=NCCc3ccc(Br)cc3)n(Cc3cccc4cccnc34)c3ccccc32)c1 [Compound 43]	79.4 nM	80 °C	–
COc1ccc(Cn2c(=NCCc3ccc(Br)cc3)n(Cc3cccc4cccnc34)c3ccccc32)cc1 [Compound 44]	79.4 nM	87 °C	–
COc1ccc(CCN=c2n(Cc3ccc(Cl)cc3)c3ccccc3n2Cc2cccc3cccnc23)cc1 [Compound 46]	100 nM	250 °C	–
COc1ccc(C(=O)Cn2c(=NCCc3ccc(Br)cc3)n(Cc3cccc4cccnc34)c3ccccc32)cc1 [Compound 50]	316 nM	152 °C	–
O=C(Cn1c(=NCCc2ccc(Br)cc2)n(Cc2cccc3cccnc23)c2ccccc21)c1ccc(Br)cc1 [Compound 52]	–	120 °C	631 nM
Cc1ccc(O)c(Cn2c(=NC3CCN(CCN)CC3)n(Cc3ccc(C#N)cc3)c3ccccc32)n1 [Compound 55]	63.1 nM	212 °C	–
Cc1ccc(O)c(Cn2c(=NCCc3ccc(Br)cc3)n(Cc3ccc(C#N)cc3)c3ccccc32)n1 [Compound 57]	251 nM	204 °C	–
Cc1ccc(CCCO)c(NCc2ccc3c(c2)n(Cc2nc(C)ccc2O)c(=N)n3C)c1 [Compound 58]	3.16 nM	195 °C	–
